Series [1] concerns barnyardgrass (Echinochloa crus-galli). Briefly: Test G Post-Emergence Protocol. The series is classed as in vivo. The following applies: Echinochloa crus-galli, post-emergence, 312 h; for pest or weed control at 15.625 g/ha: 15.625 g ai/ha, evaluated after 13 days (100=total damage to plant; 0=no damage to plant), read-out: Barnyardgrass damage rating; for pest or weed control at 62.5 g/ha: 62.5 g ai/ha, read-out: Barnyardgrass damage rating (100=total damage to plant; 0=no damage to plant); for pest or weed control at 62.5 g/ha / pest or weed control at 250 g/ha: evaluated after 13 days; for pest or weed control at 250 g/ha: 250 g ai/ha, read-out: damage to plant, Barnyardgrass (100=total damage to plant; 0=no damage to plant). The method, then: (§1) Seeds of corn (Zea mays), giant foxtail (Setaria faberi), barnyardgrass (Echinochloa crus-galli), ivy-leaved morning glory (Ipomoea hederacea), redroot pigweed (Amaranthus retroflexus) and velvetleaf (Abutilon theophrasti) were sown in standard soil in pots. After cultivation for 8 days under controlled conditions in a glasshouse (at 24/16° C., day/night; 14 hours light; 65% humidity), the plants were sprayed with an aqueous spray solution derived from the formulation of the technical active ingredient in acetone/water (50:50) solution containing 0.5% Tween 20 (polyoxyethylene sorbitan monolaurate, CAS RN 9005-64-5) to give a final dose of 15.625, 62.5 or 250 g/ha of test compound.
(§2) The test plants were then grown on under controlled conditions in a glasshouse (at 24/16° C., day/night; 14 hours light; 65% humidity) and watered twice daily. After 13 days the test was evaluated (100=total damage to plant; 0=no damage to plant). A dash (-) means no test result.

The test system of series [2] is velvetleaf (Abutilon theophrasti). Briefly: Test G Post-Emergence Protocol. Format: in vivo. The following applies: Abutilon theophrasti, post-emergence, 312 h; for pest or weed control at 15.625 g/ha: 15.625 g ai/ha, evaluated after 13 days (100=total damage to plant; 0=no damage to plant), read-out: Velvetleaf damage rating; for pest or weed control at 62.5 g/ha: 62.5 g ai/ha, read-out: Velvetleaf damage rating (100=total damage to plant; 0=no damage to plant); for pest or weed control at 62.5 g/ha / pest or weed control at 250 g/ha: evaluated after 13 days; for pest or weed control at 250 g/ha: 250 g ai/ha, read-out: damage to plant, Velvetleaf (100=total damage to plant; 0=no damage to plant). The method, then:
as §1, §2

Series [3] deals with corn (Zea mays). Kind of series: Test G Post-Emergence Protocol. The series is classed as in vivo. The conditions noted are these: Zea mays, post-emergence, 312 h; for plant injury at 15.625 g/ha: 15.625 g ai/ha, evaluated after 13 days (100=total damage to plant; 0=no damage to plant), read-out: Corn damage rating; for plant injury at 62.5 g/ha: 62.5 g ai/ha, read-out: Corn damage rating (100=total damage to plant; 0=no damage to plant); for plant injury at 62.5 g/ha / plant injury at 250 g/ha: evaluated after 13 days; for plant injury at 250 g/ha: 250 g ai/ha, read-out: damage to plant, Corn (100=total damage to plant; 0=no damage to plant). The method, then:
as §1, §2

Series [4] concerns redroot pigweed (Amaranthus retroflexus). Kind of series: Test G Post-Emergence Protocol. Format: in vivo. The following applies: Amaranthus retroflexus, post-emergence, 312 h; for pest or weed control at 15.625 g/ha: 15.625 g ai/ha, evaluated after 13 days (100=total damage to plant; 0=no damage to plant), read-out: Pigweed, Redroot damage rating; for pest or weed control at 62.5 g/ha: 62.5 g ai/ha, read-out: Pigweed, Redroot damage rating (100=total damage to plant; 0=no damage to plant); for pest or weed control at 62.5 g/ha / pest or weed control at 250 g/ha: evaluated after 13 days; for pest or weed control at 250 g/ha: 250 g ai/ha, read-out: damage to plant, Pigweed, Redroot (100=total damage to plant; 0=no damage to plant). The method, then:
as §1, §2

Series [5] has as its system giant foxtail (Setaria faberi). Kind of series: Test G Post-Emergence Protocol. The conditions noted are these: Setaria faberi, post-emergence, 312 h; for pest or weed control at 15.625 g/ha: 15.625 g ai/ha, evaluated after 13 days (100=total damage to plant; 0=no damage to plant), read-out: Foxtail, Giant damage rating; for pest or weed control at 62.5 g/ha: 62.5 g ai/ha, read-out: Foxtail, Giant damage rating (100=total damage to plant; 0=no damage to plant); for pest or weed control at 62.5 g/ha / pest or weed control at 250 g/ha: evaluated after 13 days; for pest or weed control at 250 g/ha: 250 g ai/ha, read-out: damage to plant, Foxtail, Giant (100=total damage to plant; 0=no damage to plant). The series is classed as in vivo. The method, then: as §1, §2

Series [6] relates to ivy-leaved morning glory (Ipomoea hederacea). Kind of series: Test G Post-Emergence Protocol. The series is classed as in vivo. The conditions noted are these: Ipomoea, post-emergence, 312 h; for pest or weed control at 15.625 g/ha: 15.625 g ai/ha, evaluated after 13 days (100=total damage to plant; 0=no damage to plant), read-out: Morningglory, Ivy-leaved damage rating; for pest or weed control at 62.5 g/ha: 62.5 g ai/ha, read-out: Morningglory, Ivy-leaved damage rating (100=total damage to plant; 0=no damage to plant); for pest or weed control at 62.5 g/ha / pest or weed control at 250 g/ha: evaluated after 13 days; for pest or weed control at 250 g/ha: 250 g ai/ha, read-out: damage to plant, Morningglory, Ivy-leaved (100=total damage to plant; 0=no damage to plant). The method, then: as §1, §2

The test system of series [7] is barnyardgrass (Echinochloa crus-galli). Briefly: Test A postemergence. Format: in vivo. The conditions noted are these: Echinochloa crus-galli, post-emergence, 240 h, Postemergence; for pest or weed control at 125 g/ha: 125 g ai/ha, visual rating about 10 d after treatment, read-out: Barnyardgrass plant response rating (0 to 100 scale, 0 no effect, 100 complete control); for pest or weed control at 500 g/ha: 500 g ai/ha, visual injury, 0 to 100 scale (0 no effect, 100 complete control), approx. 10 d, read-out: Plant response rating, Barnyardgrass. In outline: (§3)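 Treatment is preemergence as a directed soil spray after planting, or postemergence at the one- to two-leaf stage, with test chemical in a non-phytotoxic solvent mixture plus surfactant. Plants stay in the greenhouse about 10 d before visual injury scoring on a 0 to 100 scale versus untreated controls.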

The test system of series [8] is corn (Zea mays). Briefly: Test A postemergence. Format: in vivo. The conditions noted are these: Zea mays, post-emergence, 240 h, Postemergence; for plant injury at 125 g/ha: 125 g ai/ha, visual rating about 10 d after treatment, read-out: Corn plant response rating (0 to 100 scale); for Corn plant response rating (crop injury, 0 = no effect, 100 = complete kill) at 500 g/ha: 500 g ai/ha, visual injury, 0 to 100 scale (0 no effect, 100 complete control), approx. 10 d. The method, boiled down: as §3

Broadly, the melting point is the temperature of the solid-liquid transition.

On to `CN1C[C@@H](c2ccc(C(F)(F)F)cc2)[C@H](C(=O)Nc2ncc(C(F)(F)F)s2)C1=O` (racemic) [Compound 1504], for which, in [1], the pest or weed control at 15.625 g/ha came out at 0%, the pest or weed control at 62.5 g/ha was determined as 0% and the pest or weed control at 250 g/ha came out at 0%. For the same compound, in series [2], the pest or weed control at 15.625 g/ha is 0%, the pest or weed control at 62.5 g/ha is 0% and the pest or weed control at 250 g/ha stood at 0%. In series [3], the plant injury at 15.625 g/ha came to 0%, the plant injury at 62.5 g/ha is 0% and the plant injury at 250 g/ha came out at 0%. Moreover, in [4], the pest or weed control at 15.625 g/ha came out at 0%, the pest or weed control at 62.5 g/ha came to 0% and the pest or weed control at 250 g/ha worked out at 0%. For the same compound, in series [5], the pest or weed control at 15.625 g/ha was 0%, the pest or weed control at 62.5 g/ha is 0% and the pest or weed control at 250 g/ha is 0%. For the same compound, in [6], the pest or weed control at 15.625 g/ha turned out to be 0%, the pest or weed control at 62.5 g/ha worked out at 0% and the pest or weed control at 250 g/ha amounted to 0%.
For `CN1C[C@@H](c2ccc(C(F)(F)F)cc2)[C@H](C(=O)Nc2cnccc2C(F)(F)F)C1=O` (racemic) [Compound 1401], in series [1], the pest or weed control at 15.625 g/ha stood at 0%, the pest or weed control at 62.5 g/ha turned out to be 20% and the pest or weed control at 250 g/ha was 50%. Further, in series [2], the pest or weed control at 15.625 g/ha was 0%, the pest or weed control at 62.5 g/ha was 20% and the pest or weed control at 250 g/ha stood at 30%. In series [3], the plant injury at 15.625 g/ha came to 0%, the plant injury at 62.5 g/ha was found to be 0% and the plant injury at 250 g/ha is 50%. In addition, in series [4], the pest or weed control at 15.625 g/ha came out at 0%, the pest or weed control at 62.5 g/ha came to 0% and the pest or weed control at 250 g/ha is 30%. In series [5], the pest or weed control at 15.625 g/ha worked out at 0%, the pest or weed control at 62.5 g/ha worked out at 60% and the pest or weed control at 250 g/ha was determined as 70%. Besides, in series [6], the pest or weed control at 15.625 g/ha came out at 0%, the pest or weed control at 62.5 g/ha was determined as 0% and the pest or weed control at 250 g/ha came to 30%.
On to `CN1C[C@H](c2cccc(C(C)(C)C#N)c2)[C@@H](C(=O)Nc2cccc(F)c2F)C1=O` (racemic) [Compound 1497], for which, in series [1], the pest or weed control at 15.625 g/ha stood at 20%, the pest or weed control at 62.5 g/ha stood at 60% and the pest or weed control at 250 g/ha turned out to be 60%. Besides, in series [2], the pest or weed control at 15.625 g/ha is 0%, the pest or weed control at 62.5 g/ha came to 0% and the pest or weed control at 250 g/ha turned out to be 20%. Moreover, in series [3], the plant injury at 15.625 g/ha stood at 10%, the plant injury at 62.5 g/ha came out at 0% and the plant injury at 250 g/ha came to 50%. In [4], the pest or weed control at 15.625 g/ha turned out to be 0%, the pest or weed control at 62.5 g/ha turned out to be 0% and the pest or weed control at 250 g/ha was 0%. Further, in series [5], the pest or weed control at 15.625 g/ha came to 30%, the pest or weed control at 62.5 g/ha worked out at 60% and the pest or weed control at 250 g/ha amounted to 60%. For the same compound, in series [6], the pest or weed control at 15.625 g/ha turned out to be 0%, the pest or weed control at 62.5 g/ha worked out at 0% and the pest or weed control at 250 g/ha was found to be 10%.
In the case of `O=C1NCC(c2ccccc2)C1C(=O)Nc1cc(F)ccc1F` (stereo not shown) [Compound 1359], the melting point lay in the range of 147 to 149 °C. Also, in series [7], the pest or weed control at 125 g/ha was determined as 0% and the pest or weed control at 500 g/ha was determined as 0%. Besides, in [8], the plant injury at 125 g/ha is 0% and the Corn plant response rating (crop injury, 0 = no effect, 100 = complete kill) at 500 g/ha stood at 0%.
The compound `O=C1NCC(c2ccccc2)C1C(=O)Nc1ccc(C(F)(F)F)cc1` (stereo not shown) [Compound 1362] returned a melting point of 221 to 223 °C. For the same compound, in [7], the pest or weed control at 125 g/ha is 0% and the pest or weed control at 500 g/ha turned out to be 0%. In series [8], the plant injury at 125 g/ha came out at 0% and the Corn plant response rating (crop injury, 0 = no effect, 100 = complete kill) at 500 g/ha is 0%.
In the case of `CN1C[C@@H](c2ccc(C(F)(F)F)cc2)[C@H](C(=O)Nc2ccnc(Cl)c2Cl)C1=O` (racemic) [Compound 1503], in series [1], the pest or weed control at 15.625 g/ha worked out at 0%, the pest or weed control at 62.5 g/ha came to 10% and the pest or weed control at 250 g/ha amounted to 10%. In series [2], the pest or weed control at 15.625 g/ha was found to be 0%, the pest or weed control at 62.5 g/ha amounted to 0% and the pest or weed control at 250 g/ha was determined as 0%. In addition, in series [3], the plant injury at 15.625 g/ha was determined as 0%, the plant injury at 62.5 g/ha worked out at 10% and the plant injury at 250 g/ha is 10%. For the same compound, in series [4], the pest or weed control at 15.625 g/ha was found to be 0%, the pest or weed control at 62.5 g/ha worked out at 0% and the pest or weed control at 250 g/ha was 0%. In series [5], the pest or weed control at 15.625 g/ha is 0%, the pest or weed control at 62.5 g/ha is 20% and the pest or weed control at 250 g/ha is 40%. Further, in series [6], the pest or weed control at 15.625 g/ha was found to be 0%, the pest or weed control at 62.5 g/ha was found to be 0% and the pest or weed control at 250 g/ha came to 0%.

(Values after patent US12077503B2, “Substituted cyclic amides and their use as herbicides” (FMC CORPORATION, priority 2015, dated 2024).)
